This is an account of results in patent US6949553B2, “Aliphatic compounds, their synthesis method, and utilization of the same” (Maruha Corporation, priority 2001, dated 2005).

Experiment [1] concerns platelets. In words: In vitro platelet aggregation by various inducers, rat platelets. Format: cell-based. As to conditions: Rattus norvegicus. The text has this: Next, the suppression of platelet aggregation by the compounds of the present invention was studied in the same manner as described above with the use of not only collagen, but also arachidonic acid, ADP, thrombin, serotonin, epinephrine and U46619 (pseudo-thromboxane A2 substance) as inducers.
As platelets, platelets prepared from rats and guinea pigs as well as rabbits were also used.
Collagen and ADP were purchased from MCM, and used in accordance with the method of preparation described in the manuals attached to the purchased products. Serotonin, epinephrine and thrombin were purchased from Sigma, and used as solutions in physiological saline for injection (Otsuka Pharmaceutical Factory). Arachidonic acid was purchased from Cayman, and dispersed in physiological saline for injection (Otsuka Pharmaceutical Factory) with the use of an immersion type ultrasonic oscillator (US150, NIPPON SEIKI, tip end diameter ca. 3.5 mm). U46619 (pseudo-thromboxane substance) was purchased from FUNAKOSHI, and dissolved in physiological saline for injection (Otsuka Pharmaceutical Factory) when used.
Collagen (0.1 to 1 μg/ml), arachidonic acid (1 mM), ADP (1 μM), thrombin (1 U/ml), serotonin (100 μM), epinephrine (100 to 200 μM), and U46619 (3 μM) were used.
Indomethacin was used as a positive control for measuring the suppression of platelet aggregation induced by collagen.

The test system of experiment [2] is human platelets. In words: Human in vitro platelet aggregation. The format is cell-based. As to conditions: read-out: 50% inhibition point, IC50, against human in vitro platelet aggregation. Here is the method:
From each of the large brachial veins of human volunteers, 10 ml of blood per person was drawn using an 18G syringe needle. The blood was gently dropped into a 15 ml Falcon tube containing 1 ml of 3.8% sodium citrate (Citral, Yamanouchi Pharmaceutical). A stopper for the tube was closed, and slowly inverted for mixing. Then, the blood was centrifuged at 900 rpm for 10 minutes at room temperature to separate the supernatant (platelet rich fraction, platelet rich plasma, PRP). The residue was further centrifuged for 15 minutes at 2,500 rpm to obtain the supernatant (platelet poor fraction, platelet poor plasma, PPP). The platelet density of PRP was measured with a blood cell counter (Sysmex), and diluted with PPP to adjust the platelet density to 300,000 platelets/μl.
Preparation of aggregation inducers was performed in the same manner as described earlier.
For each experiment, the doses of the inducers were so set as to obtain best evaluation of the action of the study substance. That is, the concentration of each inducer at which aggregation would clearly develop in the presence of a negative control (physiological saline) but would not excessive was set for each experiment.
If aggregation is induced by high concentration ADP or high concentration epinephrine, on the other hand, primary aggregation takes place, and then secondary aggregation proceeds again, under the action, as a trigger, of alpha granules (PDGF, serotonin, ADP, etc.) liberated from activated platelets. In the present study, the effect of the study substance on secondary aggregation due to ADP or epinephrine was also investigated.
Serotonin, when used alone, minimally causes platelet aggregation. Thus, a combination of serotonin and collagen, or a combination of serotonin and ADP was used as the inducer. […] For example, if serotonin used alone induced aggregation at a dose of 1 mM, but induced little aggregation at a dose of 0.5 mM, and if ADP alone induced aggregation at a dose of 0.25 mM, but induced no aggregation at a dose of 0.11 mM, then the doses, 0.25 mM serotonin+0.05 mM ADP, were set.
Compound 2 was used as the study substance, and the preparation of the inducers was performed in the same manner as described earlier.
The measurement of the transmittance was carried out in the same manner as described earlier.

The test system of experiment [3] is platelets. In words: Ex vivo platelet aggregation after oral administration. Format: in vivo, rat. As to conditions: 10, 1 or 0.1 mg/kg oral single dose, rats, blood 2 hours after administration, collagen 2 to 4 μg/ml. Here is the method: Compound 2 in a dose of 10, 1 or 0.1 mg/kg was orally administered, as a single dose, to rats with the use of a probe needle. A solvent (physiological saline) was administered as a control.
The blood was withdrawn 2 hours after administration, and platelets were prepared from the blood. Platelet aggregation was induced by 2 to 4 μg/ml of collagen using the platelets. The preparation of platelets and the measurement of the aggregation rate were performed in the same manner as in Test Example 1.

A further experiment relates to mice. In words: Collagen-induced mouse sudden death model. Format: in vivo. As to conditions: 30 μg/kg intravenous 1 hour before 37.5 mg/kg collagen; survival one hour later. Here is the method:
As a preliminary study of the effect of the compounds of the present invention on an in vivo pathophysiological model, it was investigated whether the compound of the present invention would suppress collagen-induced mouse sudden death. In this model, pulmonary capillaries are obstructed by a large amount of collagen, and a sudden death is caused by oxygen deficiency.
One hour after a solvent (physiological saline) or 30 μg/kg of Compound 2 was intravenously administered to mice, 37.5 mg/kg of collagen was administered to the caudal vein. One hour later, the survival rate was compared between the groups.

In experiment [4] the test system is rat lauric acid-induced leg necrosis. In words: Rat lauric acid-induced peripheral circulatory disorder model (leg necrosis score). To be noted: for leg necrosis score (in words): iv once daily 14 days, 10, 30 or 100 μg/kg; for alleviation of the disorder (in words): prior administration. The format is in vivo. Here is the method:
A rat lauric acid-induced peripheral circulatory disorder model, which is widely used as a peripheral circulatory disorder model, was used to investigate the effect of the compounds of the present invention on an in vivo pathophysiological model of circulatory disorder.
Lauric acid (1.5 mg/animal) was administered into the rat femoral artery to induce leg necrosis.
A solvent (physiological saline) was administered as a control.
The progress of foot/leg lesions was observed 3, 7, 10 and 14 days after lauric acid administration, and evaluated by the following leg necrosis score. The score was given to each of the digits, and the sum of the scores of the respective digits was taken as a lesion index. If the disorder extended to the plantar portion, 5 points were further added.
Score 1: Blackening is limited to the tiptoe.
Score 2: Blackening extends to the digital portion.
Score 3: Necrosis of the digit.
Score 4: Loss of the digit.
A solvent (physiological saline) was similarly administered as a control.
The progress of foot/leg lesions was observed 3, 7, 10 and 14 days after lauric acid administration, and evaluated by the above leg necrosis score.
A test was conducted in the same manner as in (2) above.

Experiment [5] deals with neutrophils and vascular endothelial cells. The experiment in a line: Pseudo-blood vessel in vitro inflammation model (TNFα, neutrophil migration through endothelial cell layer). As to conditions: 30, 3 or 0.3 μM, TNFα 50 ng/ml. The format is cell-based, bovine.
Description: A layer of bovine endothelial cells was adhered to the bottom surface of the membrane, and cultured for 80 minutes at 37° C. in 5% CO2. Then, a suspension of fluorescence-labeled neutrophils was added to the upper chamber of the transwell. Simultaneously, TNFα was suspended in the cell suspension in the upper chamber to an end concentration of 50, 25 or 17 ng/ml.
That is, in the above model, the phenomena that neutrophils pass from the upper chamber through the vascular endothelial cell layer into the lower chamber, and neutrophils adhere to the endothelial cell layer mimic a state where in response to TNFα within the blood vessel, neutrophils migrate from within the blood vessel to the site of inflammation.
In the same manner as described above, the number of neutrophils passing from the upper chamber through the vascular endothelial cell layer into the lower chamber, and the number of neutrophils adhering to the endothelial cell layer were measured. Based on these numbers, the neutrophil migration rate (%) was calculated. The neutrophil migration rate was expressed as the relative value (%) of the number of the migrating neutrophils in the drug treatment group with respect to the number of the migrating neutrophils in the negative control group (physiological saline).
In experiment [6] the test system is human platelets. In words: Human in vitro platelet aggregation. The format is cell-based. As to conditions: inducer Serotonin + ADP, (0.25˜1) μM + (0.05˜0.25) μM, read-out: 50% inhibition point, IC50, against human in vitro platelet aggregation.

Each structure is given as a SMILES string. Like-named read-outs stand apart in the source and are kept apart here.

In the case of `CC/C=C\C/C=C\C/C=C\C/C=C\C/C=C\C/C=C\CCC(=O)NCCC1CCCN1C` (racemic) [Compound 2, (4Z,7Z,10Z,13Z,16Z,19Z)-N-[2-(1-methylpyrrolidin-2-yl)ethyl]docosahexaenoamide], the IC50 is around 11 µM in the experiment on platelets [1] (read-out: 50% aggregation inhibition point, collagen-induced aggregation, rat platelets); above 100 µM with platelets [1] (read-out: 50% inhibition point, IC50, for in vitro platelet aggregation, inducer ADP (1 μM), rat platelets); 11 ± 7 µM with platelets [1] (read-out: 50% inhibition point, IC50, for in vitro platelet aggregation, inducer collagen (0.1 to 1 μg/ml), rat platelets); 30 µM in the experiment on human platelets [2] (inducer ADP (0.5˜1) μM, primary aggregation); 0.57 µM in the experiment on human platelets [2] (inducer ADP (1˜2.5) μM, secondary aggregation); 80 µM with human platelets [2] (inducer Arachidonic acid (1˜2) μM). Also, the IC50 in the experiment with human platelets [2] (inducer Collagen (0.075˜0.25) μg/ml) worked out at 13 µM; in the experiment on human platelets [2] (inducer Epinephrine 1 μM, primary aggregation), 33 µM; with human platelets [2] (inducer Epinephrine (1˜3) μM, secondary aggregation), 2.7 µM; in the experiment on human platelets [2] (inducer Serotonin + Collagen, (0.25˜0.5) μM + (0.05˜0.2) μg/ml), 15 µM; with human platelets [2] (inducer Thrombin (0.2˜0.25) U/ml) it was 57 µM; in the experiment with human platelets [2] (inducer U46619 (pseudo-thromboxane A2) (5˜10) μM), 53 µM. Moreover, the IC50 with human platelets [6] was determined as 3 µM. Further, in the experiment with platelets [3], the “ex vivo platelet aggregation after oral administration (in words)” value is given as “potently suppressed”. The Survival rate in the experiment on mice is 7/10. Moreover, the “leg necrosis score (in words)” value in experiment [4] (administration after induction: first dose 6 hours after lauric acid) and in experiment [4] (administration started 1 hour before lauric acid) was “improve the leg necrosis score dose-dependently” throughout. For the same compound, the “alleviation of the disorder (in words)” value in experiment [4] (dose of 10 μg/kg) is on record as “tended to alleviate the disorder”; in experiment [4] (doses of 30 and 100 μg/kg), “alleviated the disorder significantly”. For the same compound, in experiment [5], the “neutrophil passage through vascular endothelial cell layer (in words)” value is “suppressed neutrophil passage dose-dependently”.
